Consider one molecule from PMC4467461, “Small-molecule activation of SERCA2a SUMOylation for the treatment of heart failure” (Nature Communications, 2015).

The target in the test is T1, Recombinant human SUMO-specific E1 (Homo sapiens, UniProt Q9UBT2).
T1 construct: purchased R&D Systems
The test can be described thus: SUMO E1 ATP hydrolysis, fluorogenic pyrophosphate assay. In kind it is biochemical. The note with it: E1 0.05 μM, Ubc9 0.25 μM, SUMO-1 12.5 μM, ATP 1 mM, 30 min at 37 °C; read-out: ATP-dependent activation of SUMO E1, EC50. Here is the method: Figure 3 SUMO-specific activating enzyme, E1, is a direct target of N106. Mechanism of action of N106 on individual steps in the SUMOylation cascade in vitro. (a) Inorganic pyrophosphate resulting from ATP hydrolysis in E1-catalysed SUMO-1 activation in the presence of increasing concentration of N106 compound was assessed by fluorogenic pyrophosphate assay kit. Recombinant human SUMO-specific E1 (0.05 μM), human Ubc9 (0.25 μM), human SUMO-1 (12.5 μM) and ATP (1 mM) were incubated with increasing concentration of N106 for 30 min at 37 °C and quantified using a fluorescence microplate reader. (b) The SAE2-SUMO-1 conjugation was detected followed by western blotting with anti-SAE2 antibodies. […] (e) ATP hydrolytic activity of WT and mutant SUMO E1 are determined. (f) The E1-SUMO-1 conjugation was detected followed by western blot analysis with anti-SAE2 antibody. *The SAE2-SUMO-1 conjugated bands. […]
Biochemical activity of SUMO-specific E1 enzymes was examined by ATPase assay and in-vitro gel-shifting assays. ATP hydrolysis activity of E1 enzymes was measured by using pyrophosphate assay kit (Abcam Inc.). […] The E1-thioester formation was analysed in reaction mixtures containing 0.05 μM E1, 12.5 μM SUMO-1 and 1 mM ATP with N106 or DMSO. The E1-dependent E2-SUMO-1 thioester formation was assessed using reaction containing 0.05 μM E1, 0.25 μM E2, 12.5 μM SUMO-1 and 1 mM ATP with N106 or DMSO. […]

Molecules are shown by their SMILES.

T1 sequence (Q9UBE0 whole entry): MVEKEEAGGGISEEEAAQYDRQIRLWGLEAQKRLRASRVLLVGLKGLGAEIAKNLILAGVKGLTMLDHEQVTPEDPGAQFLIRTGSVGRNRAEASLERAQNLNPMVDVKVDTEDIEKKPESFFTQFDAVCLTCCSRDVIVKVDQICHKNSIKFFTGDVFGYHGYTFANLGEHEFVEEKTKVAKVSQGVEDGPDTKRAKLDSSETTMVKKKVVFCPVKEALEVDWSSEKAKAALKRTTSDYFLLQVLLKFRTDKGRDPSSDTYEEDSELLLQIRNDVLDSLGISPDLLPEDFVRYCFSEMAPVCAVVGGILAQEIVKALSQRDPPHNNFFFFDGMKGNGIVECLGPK
T1 sequence (Q9UBT2 whole entry): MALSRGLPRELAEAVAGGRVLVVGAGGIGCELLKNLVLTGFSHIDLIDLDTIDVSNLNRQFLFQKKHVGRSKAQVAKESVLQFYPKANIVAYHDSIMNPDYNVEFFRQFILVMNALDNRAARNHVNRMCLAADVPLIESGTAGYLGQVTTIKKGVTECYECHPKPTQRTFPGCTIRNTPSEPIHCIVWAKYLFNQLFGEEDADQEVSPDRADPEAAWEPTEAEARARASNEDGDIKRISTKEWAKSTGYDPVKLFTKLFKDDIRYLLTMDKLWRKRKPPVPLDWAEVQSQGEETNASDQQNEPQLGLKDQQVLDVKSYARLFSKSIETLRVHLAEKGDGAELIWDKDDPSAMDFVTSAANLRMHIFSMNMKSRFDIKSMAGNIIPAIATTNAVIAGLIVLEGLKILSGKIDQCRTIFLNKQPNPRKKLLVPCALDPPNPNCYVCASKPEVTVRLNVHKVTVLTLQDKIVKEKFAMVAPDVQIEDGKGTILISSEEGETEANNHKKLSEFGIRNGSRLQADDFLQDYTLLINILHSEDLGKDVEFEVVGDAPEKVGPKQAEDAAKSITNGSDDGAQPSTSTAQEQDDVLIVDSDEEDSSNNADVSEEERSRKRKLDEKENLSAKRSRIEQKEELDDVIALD

For `COc1ccc(-c2nnc(Nc3nc4c(OC)cccc4s3)o2)cc1` [Compound N106, N-(4-methoxybenzo[d]thiazol-2-yl)-5-(4-methoxyphenyl)-1,3,4-oxadiazol-2-amine], the concentration for a half-maximal effect (EC50) (usually the concentration at which the effect is half-maximal) worked out at 2450 ± 130 nM.
